# What was measured:
# [1] = system: AKT, ERK and Pi3k in ZR71 breast cancer cells; assay: Western blot analysis, ZR71; type: cell-based
# Experimental: (§1) Western blot analysis of 4910, 5310 and U87 glioma cells and MDAMB231 and ZR71 breast cancer cells in the presence of specified concentrations of compounds were assessed as per standard protocols. Cells were treated with AN019, AN024 or Temozolomide at the specified concentrations. 24 h after treatment, cells were collected and cell lysates extracted. Equal quantities of proteins were fractionated by SDS-PAGE. The fractionated proteins were blotted on to nylon membranes and immunoprobed for AKT, ERK and Pi3k. Breast cancer cell protein isolates were additionally immunoprobed for EGFR, ErbB1, ErbB2 and ErbB3.
# ZR71 breast cancer cells [2] = assay: In vitro angiogenic assay, ZR-71 conditioned media on human dermal endothelial cells; type: cell-based; details: ZR-71 cells; radiation not distinguished
# Experimental: (§2) The in vitro angiogenesis of 4910, 5310 and U87 glioma cells and MDAMB231 and ZR71 breast cancer cells in the presence of specified concentrations of compounds were determined as follows, cells (2×10^4/well) were seeded in 8-well chamber slides and were treated with various concentrations of test compounds. After a 24 h incubation period, the conditioned media was removed and added to a 4×10^4 human dermal endothelial cell (monolayer in 8-well chamber slides) and the human dermal endothelial cells were allowed to grow for 72 h. Cells were then fixed in 3.7% formaldehyde and stained with H&E and photographed.
# [3] = system: Baf3 murine leukemia cells (T315I); assay: Blast cell count in nude mice implanted with Baf3 T315I cells; type: in vivo; details: Baf3T315I; Imatinib 10 mg/kg, AN019 20 mg/kg, AN024 20 mg/kg, oral gavage or ip; day 42
# Description: (§3) Blood smears were obtained via the tail vein or via the femoral vein every 6th day and blast cells counted and graphically represented.
# (§4) Abdominal swelling and decrease in activity was monitored daily, blood smear taken via the tail vein or the femoral vein every 6th day and H&E stained as per standard protocols. 42 days after implantation, mice were sacrificed and spleens harvested.
# (§5) Nude mice were intraperitoneally implanted with Baf3 mutant cells (wt, T315I, M351T or E255K). […] Blood was drawn from the femoral vein or tail vein every 6th day and blast cell count determined and graphically represented.
# 4910 glioma cells [4] = assay: Matrigel invasion assay (modified Boyden chamber), 4910; type: cell-based, human; details: 4910
# Experimental: (§6) The in vitro invasiveness of 4910, 5310 and U87 glioma cells and MDAMB231 and ZR71 breast cancer cells in the presence of specified concentrations of compounds were assessed using a modified Boyden chamber assay. Cells were treated with these compounds for 48 h. 1×10^6 cells were suspended in 600 μl of serum-free medium supplemented with 0.2% BSA and placed in the upper compartment of the transwell chambers (Corning Costar Fischer Scientific Cat #07-200-158, Pittsburgh Pa.) coated with Matrigel (0.7 mg/ml). The lower compartment of the chamber was filled with 200 μl of serum medium and the cells were allowed to migrate for 24 h. After incubation, the cells were fixed and stained with Hema-3 and quantified as previously described (Mohanam et al. 1993). The migrated cells were imaged microscopically to determine the reduction in invasiveness induced by the compounds of this invention.
# U87 glioma cells [5] = assay: Matrigel invasion assay (modified Boyden chamber), U87; type: cell-based; details: U87
# Experimental: as §6
# [6] = system: MDAMB231 breast cancer cells; assay: In vitro angiogenic assay, MDA-MB-231 conditioned media on human dermal endothelial cells; type: cell-based; details: MDA-MB-231 cells
# Experimental: as §2
# U87 glioma cells [7] = assay: In vitro angiogenic assay, U87 conditioned media on human dermal endothelial cells; type: cell-based
# Experimental: as §2
# [8] = system: Baf3 murine leukemia cells (M351T); assay: Blast cell count in nude mice implanted with Baf3 M351T cells; type: in vivo; details: Baf3M351T; Imatinib 10 mg/kg, AN019 20 mg/kg, AN024 20 mg/kg, oral gavage or ip; day 42
# Description: as §3, §4, §5
# [9] = system: MDAMB231 breast cancer cells; assay: Matrigel invasion assay (modified Boyden chamber), MDA-MB-231; type: cell-based; details: MDA-MB-231
# Experimental: as §6
# [10] = system: AKT, ERK and Pi3k in U87 glioma cells; assay: Western blot analysis, U87; type: cell-based
# Experimental: as §1
# [11] = system: K562 luciferase expressing cells; assay: Leukemic survival study in nude mice implanted with K562 luciferase expressing cells; type: in vivo
# Description: K562 luciferase expressing cells were implanted intraperitoneally into nude mice; the mice were scanned using the xenogeny IVIS image station after ip injections of luciferin does determine implantations. Drug treatment was started as in previous studies day 15 after implantation. The animals were given treatment till day 42, after which drug treatment was stopped and survival of the animals determined as per the animal care regulations. […] Drug treatment was withdrawn on day 42 post implantation and survival of animals determined.
# [12] = not given; remark: listed apart in the source
# ZR71 breast cancer cells [13] = assay: Matrigel invasion assay (modified Boyden chamber), ZR-71; type: cell-based; details: ZR-71
# Experimental: as §6
# 5310 glioma cells [14] = assay: In vitro angiogenic assay, 5310 conditioned media on human dermal endothelial cells; type: cell-based; details: 5310 cells
# Experimental: as §2
# [15] = system: AKT, ERK and Pi3k in 4910 glioma cells; assay: Western blot analysis, 4910; type: cell-based, human
# Experimental: as §1
# [16] = system: Baf3 murine leukemia cells (E255K); assay: Blast cell count in nude mice implanted with Baf3 E255K cells; type: in vivo; details: Baf3 E225K (E255K); Imatinib 10 mg/kg, AN019 20 mg/kg, AN024 20 mg/kg, oral gavage or ip; day 42
# Description: as §3, §4, §5
# K562 = assay: ED50 (po) in leukemic mice (K562); details: po, mice
# 4910 glioma cells [17] = assay: In vitro angiogenic assay, 4910 conditioned media on human dermal endothelial cells; type: cell-based; details: 4910 cells
# Experimental: as §2
# [18] = system: 4910 human glioma xenograft cells; assay: Glioma radiation study, nude mice intracranially implanted with 4910 cells; type: in vivo
# Experimental: Nude mice were intracranially implanted with 4910 human glioma xenograft cells (1×10^6 cells). Ten days after implantation mice were treated with AN019, AN024 or temozolomide with or without radiation (5 Gy/week). The experiment was terminated at day 40 post implantation.
# 5310 glioma cells [19] = assay: Matrigel invasion assay (modified Boyden chamber), 5310; type: cell-based; details: 5310
# Experimental: as §6
smiles,measurement,setting,value
Cc1ccc(NC(=O)c2cccc(S(=O)(=O)C(F)(F)F)c2)cc1Nc1nccc(-c2cccnc2)n1 [AN024],AKT levels (Western blot),"[1]; ZR71, after radiation",decrease in AKT expression
same,AKT levels (Western blot),"[1]; ZR71, unirradiated",did not show any significant change
same,PI3k levels (Western blot),"[1]; ZR71, with radiation",decrease in PI3k levels
same,Inhibition of angiogenesis,ZR71 breast cancer cells [2],complete inhibition of angiogenesis
same,MTD Mice,,500 mg/kg
same,Blast cell count in blood smears,[3],significant decrease in blast cell count
same,±Change in invasion after radiation,4910 glioma cells [4],−17%
same,±Change in invasion after radiation,U87 glioma cells [5],−24%
same,Inhibition of angiogenesis,[6]; after radiation,only a slight inhibition
same,Inhibition of angiogenesis,[6]; control condition (without radiation),only a slight inhibition
same,Inhibition of angiogenesis,U87 glioma cells [7]; after radiation,increase in inhibition
same,Inhibition of angiogenesis,U87 glioma cells [7]; without radiation,significant retardation in angiogenesis
same,Blast cell count in blood smears,[8],significant decrease in blast cell count
same,±Change in invasion after radiation,[9],+4%
same,ERK levels (Western blot),"[10]; U87, after radiation",decrease was enhanced
same,ERK levels (Western blot),"[10]; U87, without radiation",slight decrease in ERK levels
same,"Blast cell count from blood smears, effectiveness after withdrawal of drug treatment",[11]; drug treatment withdrawn on day 42,showed effectiveness after withdrawal of drug treatment
same,Animals showing no signs of leukemia / complete absence of leukemic symptoms,"[11]; of 10 animals, drug withdrawn day 42, AN024 on day 55",8 animals
same,Mortality,"[11]; treatment day 15 to day 42, then withdrawn, 10 animals",mortality on day 38
same,LD50 (po) Mice,[12],1440 mg/kg
same,±Change in invasion after radiation,ZR71 breast cancer cells [13],−3%
same,Inhibition of angiogenesis,5310 glioma cells [14]; after radiation,angiogenesis further inhibited
same,Inhibition of angiogenesis,5310 glioma cells [14]; control conditions (without radiation),inhibition of angiogenesis
same,AKT levels (Western blot),"[15]; 4910, after radiation",decrease in AKT levels was enhanced
same,AKT levels (Western blot),"[15]; 4910, without radiation",decrease in AKT levels
same,Blast cell count in blood smears,[16],significant decrease in blast cell count
same,ED50 (po) Mice,K562,10 mg/kg
same,Inhibition of angiogenesis,4910 glioma cells [17]; after radiation,significant inhibition of angiogenesis
same,Inhibition of angiogenesis,4910 glioma cells [17]; without radiation,significant inhibition of angiogenesis
same,Animals cured / no observable intracranial tumor,"[18]; of 10 animals, with radiation (5 Gy/week), day 40 post implantation",7 animals
same,Animals cured / complete absence of intracranial tumours,"[18]; of 10 animals, without radiation, day 40 post implantation",3 animals
same,Intracranial tumour size and appearance,[18]; with radiation (5 Gy/week),well defined surgically respectable tumours
same,Intracranial tumour size and appearance,[18]; without radiation,tumours were well defined and not showing diffuse edges
same,±Change in invasion after radiation,5310 glioma cells [19],+5%

# From patent US8067422B2, “Crystal form of phenylamino pyrimidine derivatives” (Natco Pharma Limited, priority 2008, dated 2011)
